Measurements published in ChEMBL document CHEMBL1201862, “PubChem BioAssay data set” (2004).
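Method: 48-hour compound exposure of cells in 96-well plates, five concentrations, linear interpolation of endpoints. GI50 is the concentration that inhibits growth by half.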 The source made the active and inactive calls. Rule as the data show it: active = GI50 up to about 1.1 µM and inactive = higher.

Assays:
Experiment in all cases: inhibition of tumour cell growth, NCI panel, 48 h
EKVX = system: EKVX
SK-MEL-28 = system: SK-MEL-28
KM12 = system: KM12
UACC-62 = system: UACC-62
A498 = system: A498
SNB-75 = system: SNB-75
OVCAR-8 = system: OVCAR-8
HCT-15 = system: HCT-15
SK-OV-3 = system: SK-OV-3
SK-MEL-5 = system: SK-MEL-5
NCI-H522 = system: NCI-H522
SF-539 = system: SF-539
SF-295 = system: SF-295
OVCAR-3 = system: OVCAR-3
MCF7 = system: MCF7
PC-3 = system: PC-3
Hs-578T = system: Hs-578T
OVCAR-4 = system: OVCAR-4
NCI-H23 = system: NCI-H23
CCRF-CEM = system: CCRF-CEM
UO-31 = system: UO-31
HOP-62 = system: HOP-62
MDA-MB-231 = system: MDA-MB-231
MDA-N = system: MDA-N
HCT-116 = system: HCT-116
OVCAR-5 = system: OVCAR-5
NCI/ADR-RES = system: NCI/ADR-RES
SK-MEL-2 = system: SK-MEL-2
LOX IMVI = system: LOX IMVI
NCI-H460 = system: NCI-H460
RPMI-8226 = system: RPMI-8226
SR = system: SR
HL-60 = system: HL-60
SW-620 = system: SW-620
MOLT-4 = system: MOLT-4
HCC 2998 = system: HCC 2998
MDA-MB-435 = system: MDA-MB-435
U-251 = system: U-251
A549 = system: A549
RXF 393 = system: RXF 393
SF-268 = system: SF-268
M14 = system: M14
TK-10 = system: TK-10
COLO 205 = system: COLO 205
K562 = system: K562
IGROV-1 = system: IGROV-1
HT-29 = system: HT-29
NCI-H226 = system: NCI-H226
SN12C = system: SN12C
T47D = system: T47D
SNB-19 = system: SNB-19
DU-145 = system: DU-145
Malme-3M = system: Malme-3M
ACHN = system: ACHN
CAKI-1 = system: CAKI-1

COc1ccc(N2C(=O)C3c4[nH]c5cc(C)ccc5c4C4CCC(C(C)(C)C)CC4C3C2=O)cc1 (stereo not given)
GI50 (EKVX): 9.1 µM (inactive)
GI50 (SK-MEL-28): > 10 µM (inactive)
GI50 (KM12): > 10 µM (inactive)
GI50 (UACC-62): 6.19 µM (inactive)
GI50 (A498): 5.21 µM (inactive)
GI50 (SNB-75): 2.59 µM (inactive)
GI50 (OVCAR-8): 4.88 µM (inactive)
GI50 (HCT-15): > 10 µM
GI50 (SK-OV-3): > 10 µM (inactive)
GI50 (SK-MEL-5): > 10 µM (inactive)
GI50 (NCI-H522): 8.63 µM (inactive)
GI50 (SF-539): 4.19 µM (inactive)
GI50 (SF-295): 7.08 µM (inactive)
GI50 (OVCAR-3): > 10 µM (inactive)
GI50 (MCF7): > 10 µM (inactive)
GI50 (PC-3): 5.24 µM (inactive)
GI50 (Hs-578T): 3.08 µM (inactive)
GI50 (OVCAR-4): 4.36 µM (inactive)
GI50 (NCI-H23): > 10 µM (inactive)
GI50 (CCRF-CEM): > 10 µM (inactive)
GI50 (UO-31): > 10 µM (inactive)
GI50 (HOP-62): 7.6 µM (inactive)
GI50 (MDA-MB-231): > 10 µM (inactive)
GI50 (MDA-N): > 10 µM (inactive)
GI50 (HCT-116): > 10 µM (inactive)
GI50 (OVCAR-5): > 10 µM (inactive)
GI50 (NCI/ADR-RES): 3.66 µM (inactive)
GI50 (SK-MEL-2): > 10 µM (inactive)
GI50 (LOX IMVI): 7.24 µM (inactive)
GI50 (NCI-H460): 7.62 µM (inactive)
GI50 (RPMI-8226): > 10 µM (inactive)
GI50 (SR): > 10 µM (inactive)
GI50 (HL-60): > 10 µM (inactive)
GI50 (SW-620): > 10 µM (inactive)
GI50 (MOLT-4): > 10 µM (inactive)
GI50 (HCC 2998): > 10 µM (inactive)
GI50 (MDA-MB-435): > 10 µM (inactive)
GI50 (U-251): 5.43 µM (inactive)
GI50 (A549): > 10 µM (inactive)
GI50 (RXF 393): > 10 µM (inactive)
GI50 (SF-268): 5.75 µM (inactive)
GI50 (M14): > 10 µM (inactive)
GI50 (TK-10): > 10 µM (inactive)
GI50 (COLO 205): > 10 µM (inactive)
GI50 (K562): > 10 µM (inactive)
GI50 (IGROV-1): > 10 µM (inactive)
GI50 (HT-29): > 10 µM (inactive)
GI50 (NCI-H226): > 10 µM (inactive)
GI50 (SN12C): > 10 µM (inactive)
GI50 (T47D): > 10 µM (inactive)
GI50 (SNB-19): > 10 µM (inactive)
GI50 (DU-145): > 10 µM (inactive)
GI50 (Malme-3M): > 10 µM (inactive)
GI50 (ACHN): > 10 µM (inactive)
GI50 (CAKI-1): > 10 µM (inactive)
